{"source": "paper PMC4604124", "about": "“In Vitro Characterization of the Pharmacological Properties of the Anti-Cancer Chelator, Bp4eT, and Its Phase I Metabolites” (PLoS ONE, 2015)", "key": {"H9c2 cardiomyoblasts": {"system": "H9c2 cardiomyoblasts", "test": "MTT cytotoxicity assay, H9c2 cells", "format": "cell-based, rat", "conditions": "for IC50: MTT; for MTT, relative to control (0 = 100): H9c2", "experimental": "(§1) For cytotoxicity experiments, cancer cells were seeded at a density of 5,000 (MCF-7), 10,000 (HL-60) or 2,000 cells/well (HCT116 and A549) in 96-well plates (TPP) for 24 h/37°C prior to the addition of examined agents. The non-cancerous cells, 3T3 and H9c2 cells, were cultured for 24 h/37°C in 96-well plates at a density of 10,000 cells/well, the medium was then changed to serum- and pyruvate-free DMEM (Sigma-Aldrich) and incubated with the cells for another 24 h/37°C. The cytotoxic effects of Bp4eT and its metabolites were studied at different concentrations after a 72 h/37°C incubation. In order to aid the dissolution of the lipophilic ligands, 0.1% dimethyl sulfoxide (v/v) (DMSO; Sigma-Aldrich) was present in the culture medium of all groups. At this concentration, DMSO had no effect on cellular proliferation or viability.\n(§2) The viability of cells were determined using an MTT assay (Sigma-Aldrich) according to previously established methods. The optical density of soluble MTT was measured at λ = 570 nm, subtracting the λ = 690 nm background using a Tecan Infinite 200M plate reader (Tecan Group, Männedorf, Switzerland). The viability or proliferation of experimental groups was expressed as a percentage of the untreated controls (100%).\n(§3) SigmaStat for Windows 3.5 (Systat Software, San Jose, CA, USA) statistical software package was utilized to analyze results. The data are expressed as the mean ± SD of a given number of experiments. Statistical significance was determined using a one-way ANOVA with a Bonferroni post-hoc test or Student’s t-test. The results were considered to be statistically significant when p < 0.05. The IC50 values were calculated using CalcuSyn 2.0 software (Biosoft, Cambridge, UK). Cell cycle analysis was evaluated using MultiCycle AV Software (Phoenix Flow Systems, San Diego, CA, USA)."}, "[1]": {"system": "3T3 mouse embryo fibroblasts", "test": "MTT cytotoxicity assay, 3T3 cells", "format": "cell-based", "conditions": "for MTT, relative to control (0 = 100): 3T3, 10 000 b/j", "experimental": "as §1, §2, §3"}, "[2]": {"test": "Viability (viabilita) used to normalise caspase activity", "format": "cell-based, human", "conditions": "human, MCF-7 cells, kontrola = 100", "description": "Supplement pone.0139929.s002.zip/caspases activity.xlsx, sheet \"results_viability\""}}, "note": "Several values for one entry are separate records, joined by “and”; a condition that tells them apart may be missing. Equal entries are not always repeated. Where two headings read alike, the source gives them in different places.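 Wherever viabilita is given: compound tested at 100 nM.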"}
{"compound": "CCNC(=O)NN=C(c1ccccc1)c1ccccn1", "note": "[Z-Bp4eS, 2-benzoylpyridine 4-ethylsemicarbazone]", "values": [{"measurement": "IC50", "setting": "H9c2 cardiomyoblasts; H9c2, 72 h/37°C, mean ± SD, n ≥ 4, read-out: IC50", "value": "343 ± 95.1", "unit": "µM"}, {"measurement": "MTT, relative to control (0 = 100)", "setting": "H9c2 cardiomyoblasts; 10 000 b/j, 1 μM, průměr (mean), sheet Z-Bp4eS", "value": 99.81}, {"measurement": "MTT, relative to control (0 = 100)", "setting": "H9c2 cardiomyoblasts; 10 000 b/j, 1 μM, single experiment (date), sheet Z-Bp4eS", "value": "102.371 and 103.08 and 95.5416 and 98.2281"}, {"measurement": "MTT, relative to control (0 = 100)", "setting": "H9c2 cardiomyoblasts; 10 000 b/j, 3 μM, průměr (mean), sheet Z-Bp4eS", "value": 93.78}, {"measurement": "MTT, relative to control (0 = 100)", "setting": "H9c2 cardiomyoblasts; 10 000 b/j, 3 μM, single experiment (date), sheet Z-Bp4eS", "value": "92.602 and 95.2542 and 92.4159 and 94.8358"}, {"measurement": "MTT, relative to control (0 = 100)", "setting": "H9c2 cardiomyoblasts; 10 000 b/j, 10 μM, průměr (mean), sheet Z-Bp4eS", "value": 89.06}, {"measurement": "MTT, relative to control (0 = 100)", "setting": "H9c2 cardiomyoblasts; 10 000 b/j, 10 μM, single experiment (date), sheet Z-Bp4eS", "value": "88.6483 and 89.659 and 90.3674 and 87.5524"}, {"measurement": "MTT, relative to control (0 = 100)", "setting": "H9c2 cardiomyoblasts; 10 000 b/j, 30 μM, průměr (mean), sheet Z-Bp4eS", "value": 76.27}, {"measurement": "MTT, relative to control (0 = 100)", "setting": "H9c2 cardiomyoblasts; 10 000 b/j, 30 μM, single experiment (date), sheet Z-Bp4eS", "value": "77.9281 and 80.0605 and 74.6409 and 72.4521"}, {"measurement": "MTT, relative to control (0 = 100)", "setting": "H9c2 cardiomyoblasts; 10 000 b/j, 100 μM, průměr (mean), sheet Z-Bp4eS", "value": 56.31}, {"measurement": "MTT, relative to control (0 = 100)", "setting": "H9c2 cardiomyoblasts; 10 000 b/j, 100 μM, single experiment (date), sheet Z-Bp4eS", "value": "59.4912 and 57.2744 and 57.5228 and 50.9483"}, {"measurement": "MTT, relative to control (0 = 100)", "setting": "H9c2 cardiomyoblasts; 10 000 b/j, 300 μM, průměr (mean), sheet Z-Bp4eS", "value": 53.60}, {"measurement": "MTT, relative to control (0 = 100)", "setting": "H9c2 cardiomyoblasts; 10 000 b/j, 300 μM, single experiment (date), sheet Z-Bp4eS", "value": "52.3885 and 58.4831 and 53.7777 and 49.7549"}, {"measurement": "MTT, relative to control (0 = 100)", "setting": "H9c2 cardiomyoblasts; 10 000 b/j, 1000 μM, průměr (mean), sheet Z-Bp4eS", "value": 39.75}, {"measurement": "MTT, relative to control (0 = 100)", "setting": "H9c2 cardiomyoblasts; 10 000 b/j, 1000 μM, single experiment (date), sheet Z-Bp4eS", "value": "41.1185 and 45.5292 and 39.9014 and 32.4603"}, {"measurement": "IC50", "setting": "H9c2 cardiomyoblasts; Rattus norvegicus, H9c2, H9c2, 10 000 b/j, průměr (mean), sheet Z-Bp4eS, read-out: IC50 měřené", "value": 343, "unit": "µM"}, {"measurement": "IC50", "setting": "[1]; 3T3, 72 h/37°C, MTT, mean ± SD, n ≥ 4, read-out: IC50", "value": "> 1000", "unit": "µM"}, {"measurement": "MTT, relative to control (0 = 100)", "setting": "[1]; 1 μM, průměr (mean)", "value": 99.81}, {"measurement": "MTT, relative to control (0 = 100)", "setting": "[1]; 1 μM, single experiment (date)", "value": "90.4217 and 112.179 and 103.613 and 93.692 and 99.1404"}, {"measurement": "MTT, relative to control (0 = 100)", "setting": "[1]; 3 μM, průměr (mean)", "value": 93.98}, {"measurement": "MTT, relative to control (0 = 100)", "setting": "[1]; 3 μM, single experiment (date)", "value": "89.9896 and 95.9618 and 102.444 and 92.291 and 89.1987"}, {"measurement": "MTT, relative to control (0 = 100)", "setting": "[1]; 10 μM, průměr (mean)", "value": 93.85}, {"measurement": "MTT, relative to control (0 = 100)", "setting": "[1]; 10 μM, single experiment (date)", "value": "91.4468 and 99.0627 and 95.1304 and 94.2734 and 89.336"}, {"measurement": "MTT, relative to control (0 = 100)", "setting": "[1]; 30 μM, průměr (mean)", "value": 90.21}, {"measurement": "MTT, relative to control (0 = 100)", "setting": "[1]; 30 μM, single experiment (date)", "value": "100.856 and 90.0957 and 87.8236 and 82.0687"}, {"measurement": "MTT, relative to control (0 = 100)", "setting": "[1]; 100 μM, průměr (mean)", "value": 73.57}, {"measurement": "MTT, relative to control (0 = 100)", "setting": "[1]; 100 μM, single experiment (date)", "value": "81.8752 and 74.6133 and 74.3643 and 63.4281"}, {"measurement": "MTT, relative to control (0 = 100)", "setting": "[1]; 300 μM, průměr (mean)", "value": 72.55}, {"measurement": "MTT, relative to control (0 = 100)", "setting": "[1]; 300 μM, single experiment (date)", "value": "79.104 and 69.1035 and 70.1959 and 71.7888"}, {"measurement": "MTT, relative to control (0 = 100)", "setting": "[1]; 1000 μM, průměr (mean)", "value": 63.36}, {"measurement": "MTT, relative to control (0 = 100)", "setting": "[1]; 1000 μM, single experiment (date)", "value": "73.2159 and 60.5042 and 61.05 and 58.6559"}, {"measurement": "viability at 3 h, 100 nM", "setting": "[2]; 3 hodiny", "value": 97.4, "unit": "%"}, {"measurement": "viability at 24 h, 100 nM", "setting": "[2]; 24 hodin", "value": 99.5, "unit": "%"}, {"measurement": "viability at 72 h, 100 nM", "setting": "[2]; 72 hodin", "value": 93.5, "unit": "%"}]}
